In the kinase profiling compilation of Christmann-Franck et al. (2016):

Experiments:
Assay in all cases: radiometric filter-binding kinase assay, Kinaseprofiler
AURKC (human) = AURKC (human) (UniProt Q9UQB9); settings: ATP 15 µM
BMX (human) = BMX (human) (UniProt P51813); settings: ATP 45 µM
CAMK2D (human) = CAMK2D (human) (UniProt Q13557); settings: ATP 10 µM
CDC42BPB (human) = CDC42BPB (human) (UniProt Q9Y5S2); settings: ATP 10 µM
CDK2 CCNA2 (human) = CDK2 CCNA2 (human) (UniProt P24941+P20248); settings: ATP 45 µM
CHEK1 (human) = CHEK1 (human) (UniProt O14757); settings: ATP 90 µM
CHEK2 (human) = CHEK2 (human) (UniProt O96017); settings: ATP 70 µM
EPHA7 (human) = EPHA7 (human) (UniProt Q15375); settings: ATP 90 µM
FER (human) = FER (human) (UniProt P16591); settings: ATP 70 µM
FGFR4 (human) = FGFR4 (human) (UniProt P22455); settings: ATP 155 µM
FRK (human) = FRK (human) (UniProt P42685); settings: ATP 155 µM
FYN (human) = FYN (human) (UniProt P06241); settings: ATP 70 µM
GRK6 (human) = GRK6 (human) (UniProt P43250); settings: ATP 45 µM
INSR (human) = INSR (human) (UniProt P06213)
IRAK1 (human) = IRAK1 (human) (UniProt P51617); settings: ATP 45 µM
LIMK1 (human) = LIMK1 (human) (UniProt P53667); settings: ATP 15 µM
MAP2K6 (human) = MAP2K6 (human) (UniProt P52564); settings: ATP 10 µM
MAP3K9 (human) = MAP3K9 (human) (UniProt P80192); settings: ATP 45 µM
MAPK10 (human) = MAPK10 (human) (UniProt P53779); settings: ATP 10 µM
MAPK13 (human) = MAPK13 (human) (UniProt O15264); settings: ATP 15 µM
MARK2 (human) = MARK2 (human) (UniProt Q7KZI7); settings: ATP 15 µM
NEK6 (human) = NEK6 (human) (UniProt Q9HC98); settings: ATP 45 µM
PAK3 (human) = PAK3 (human) (UniProt O75914); settings: ATP 120 µM
PAK6 (human) = PAK6 (human) (UniProt Q9NQU5); settings: ATP 10 µM
PAK7 (human) = PAK7 (human) (UniProt Q9P286); settings: ATP 15 µM
PIM1 (human) = PIM1 (human) (UniProt P11309); settings: ATP 90 µM
PIM2 (human) = PIM2 (human) (UniProt Q9P1W9); settings: ATP 15 µM
PLK2 (human) = PLK2 (human) (UniProt Q9NYY3); settings: ATP 120 µM
PRKCI (human) = PRKCI (human) (UniProt P41743); settings: ATP 155 µM
PRKCZ (human) = PRKCZ (human) (UniProt Q05513); settings: ATP 15 µM
PTK2 (human) = PTK2 (human) (UniProt Q05397); settings: ATP 70 µM
RET (human) = RET (human) (UniProt P07949); settings: ATP 70 µM
STK4 (human) = STK4 (human) (UniProt Q13043); settings: ATP 90 µM

Chain of INSR (human) (P06213 whole entry, looked up): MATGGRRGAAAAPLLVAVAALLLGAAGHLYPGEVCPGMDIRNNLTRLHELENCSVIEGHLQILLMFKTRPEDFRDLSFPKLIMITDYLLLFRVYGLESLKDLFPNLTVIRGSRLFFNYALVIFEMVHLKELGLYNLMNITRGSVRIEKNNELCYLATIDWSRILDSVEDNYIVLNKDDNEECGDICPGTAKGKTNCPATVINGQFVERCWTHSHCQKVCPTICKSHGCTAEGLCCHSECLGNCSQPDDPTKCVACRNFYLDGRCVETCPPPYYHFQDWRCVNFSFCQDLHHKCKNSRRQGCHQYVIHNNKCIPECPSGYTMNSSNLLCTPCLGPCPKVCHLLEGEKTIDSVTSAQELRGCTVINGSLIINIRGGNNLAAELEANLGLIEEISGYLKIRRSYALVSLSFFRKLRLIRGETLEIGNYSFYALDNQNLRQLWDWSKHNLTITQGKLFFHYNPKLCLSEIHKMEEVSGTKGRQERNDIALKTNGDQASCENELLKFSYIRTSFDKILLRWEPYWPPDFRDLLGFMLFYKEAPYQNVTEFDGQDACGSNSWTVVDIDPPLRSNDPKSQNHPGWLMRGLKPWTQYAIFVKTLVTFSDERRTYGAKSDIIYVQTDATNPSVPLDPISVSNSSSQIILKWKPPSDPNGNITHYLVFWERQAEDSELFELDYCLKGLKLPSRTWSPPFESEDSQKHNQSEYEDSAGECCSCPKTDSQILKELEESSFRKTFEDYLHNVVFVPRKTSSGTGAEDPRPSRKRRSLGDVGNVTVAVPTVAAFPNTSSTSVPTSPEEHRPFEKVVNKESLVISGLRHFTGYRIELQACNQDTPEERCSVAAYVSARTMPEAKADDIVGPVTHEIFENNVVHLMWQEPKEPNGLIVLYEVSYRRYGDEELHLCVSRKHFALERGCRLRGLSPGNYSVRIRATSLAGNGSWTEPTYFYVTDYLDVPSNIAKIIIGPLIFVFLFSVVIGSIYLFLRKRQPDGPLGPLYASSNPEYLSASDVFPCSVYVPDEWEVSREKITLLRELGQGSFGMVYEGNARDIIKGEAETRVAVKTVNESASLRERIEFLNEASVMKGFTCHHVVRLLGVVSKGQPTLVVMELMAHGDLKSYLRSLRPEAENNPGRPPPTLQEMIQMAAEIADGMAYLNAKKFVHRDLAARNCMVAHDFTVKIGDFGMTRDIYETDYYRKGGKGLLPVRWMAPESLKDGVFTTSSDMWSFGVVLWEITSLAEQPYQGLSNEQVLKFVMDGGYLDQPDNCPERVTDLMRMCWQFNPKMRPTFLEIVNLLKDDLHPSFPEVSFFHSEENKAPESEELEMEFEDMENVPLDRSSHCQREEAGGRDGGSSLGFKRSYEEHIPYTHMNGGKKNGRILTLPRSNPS
Chain of FGFR4 (human) (P22455 whole entry, looked up): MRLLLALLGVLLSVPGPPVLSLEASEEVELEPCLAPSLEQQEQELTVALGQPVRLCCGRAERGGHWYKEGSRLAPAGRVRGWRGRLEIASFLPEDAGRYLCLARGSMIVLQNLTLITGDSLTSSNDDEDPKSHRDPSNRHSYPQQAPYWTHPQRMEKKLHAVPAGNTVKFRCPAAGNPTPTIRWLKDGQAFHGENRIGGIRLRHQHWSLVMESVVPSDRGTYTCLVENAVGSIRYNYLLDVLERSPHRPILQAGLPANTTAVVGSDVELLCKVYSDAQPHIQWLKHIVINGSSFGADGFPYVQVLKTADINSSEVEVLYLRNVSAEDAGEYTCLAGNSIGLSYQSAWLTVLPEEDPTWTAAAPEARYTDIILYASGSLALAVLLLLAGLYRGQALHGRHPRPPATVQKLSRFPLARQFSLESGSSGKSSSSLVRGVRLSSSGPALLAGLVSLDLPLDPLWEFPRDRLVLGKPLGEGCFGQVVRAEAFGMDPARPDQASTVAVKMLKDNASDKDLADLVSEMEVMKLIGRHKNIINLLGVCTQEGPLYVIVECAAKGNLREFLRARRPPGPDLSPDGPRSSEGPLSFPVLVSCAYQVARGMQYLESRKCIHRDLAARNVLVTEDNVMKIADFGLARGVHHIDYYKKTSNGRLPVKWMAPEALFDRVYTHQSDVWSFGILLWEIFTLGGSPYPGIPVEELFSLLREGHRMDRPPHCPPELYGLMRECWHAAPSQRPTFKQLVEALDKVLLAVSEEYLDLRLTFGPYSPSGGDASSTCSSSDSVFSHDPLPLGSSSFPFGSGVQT
Chain of CDK2 CCNA2 (human) (P20248 whole entry, looked up, other chains not shown): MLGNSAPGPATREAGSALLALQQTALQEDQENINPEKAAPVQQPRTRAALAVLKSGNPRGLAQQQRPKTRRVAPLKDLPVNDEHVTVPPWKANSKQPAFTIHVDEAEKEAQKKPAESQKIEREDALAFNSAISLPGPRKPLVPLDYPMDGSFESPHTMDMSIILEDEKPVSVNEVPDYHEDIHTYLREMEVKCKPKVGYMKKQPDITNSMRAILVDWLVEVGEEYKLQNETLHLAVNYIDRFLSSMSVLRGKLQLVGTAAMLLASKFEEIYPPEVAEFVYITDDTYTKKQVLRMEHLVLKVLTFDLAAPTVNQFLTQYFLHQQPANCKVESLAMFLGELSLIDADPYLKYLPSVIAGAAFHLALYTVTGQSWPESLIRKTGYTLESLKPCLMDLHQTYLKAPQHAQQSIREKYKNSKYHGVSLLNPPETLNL
Chain of LIMK1 (human) (P53667 whole entry, looked up): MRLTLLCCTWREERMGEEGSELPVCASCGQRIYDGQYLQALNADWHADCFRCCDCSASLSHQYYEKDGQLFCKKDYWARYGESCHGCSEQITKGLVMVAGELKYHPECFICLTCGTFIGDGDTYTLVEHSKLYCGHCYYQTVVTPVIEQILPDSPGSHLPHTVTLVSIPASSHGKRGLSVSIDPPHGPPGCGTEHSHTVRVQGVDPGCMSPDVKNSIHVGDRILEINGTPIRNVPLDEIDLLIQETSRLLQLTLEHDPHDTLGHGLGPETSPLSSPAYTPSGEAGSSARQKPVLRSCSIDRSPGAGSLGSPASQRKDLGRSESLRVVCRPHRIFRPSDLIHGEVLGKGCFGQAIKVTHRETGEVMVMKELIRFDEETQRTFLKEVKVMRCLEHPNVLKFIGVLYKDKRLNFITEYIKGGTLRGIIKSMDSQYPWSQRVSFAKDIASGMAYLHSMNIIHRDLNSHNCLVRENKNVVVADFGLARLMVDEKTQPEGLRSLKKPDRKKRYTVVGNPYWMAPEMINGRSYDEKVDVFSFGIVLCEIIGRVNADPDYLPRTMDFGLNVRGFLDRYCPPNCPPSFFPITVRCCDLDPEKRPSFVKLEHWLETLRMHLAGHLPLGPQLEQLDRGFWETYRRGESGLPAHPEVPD
Chain of PIM2 (human) (Q9P1W9 whole entry, looked up): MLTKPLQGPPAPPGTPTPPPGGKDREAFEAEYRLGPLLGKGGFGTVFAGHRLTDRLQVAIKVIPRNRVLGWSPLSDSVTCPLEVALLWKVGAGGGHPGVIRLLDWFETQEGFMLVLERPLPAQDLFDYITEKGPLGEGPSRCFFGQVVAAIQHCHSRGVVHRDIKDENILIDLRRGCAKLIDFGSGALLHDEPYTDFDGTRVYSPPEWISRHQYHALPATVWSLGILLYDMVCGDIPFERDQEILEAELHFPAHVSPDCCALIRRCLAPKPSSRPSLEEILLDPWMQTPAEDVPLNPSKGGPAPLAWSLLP
Chain of FER (human) (P16591 whole entry, looked up): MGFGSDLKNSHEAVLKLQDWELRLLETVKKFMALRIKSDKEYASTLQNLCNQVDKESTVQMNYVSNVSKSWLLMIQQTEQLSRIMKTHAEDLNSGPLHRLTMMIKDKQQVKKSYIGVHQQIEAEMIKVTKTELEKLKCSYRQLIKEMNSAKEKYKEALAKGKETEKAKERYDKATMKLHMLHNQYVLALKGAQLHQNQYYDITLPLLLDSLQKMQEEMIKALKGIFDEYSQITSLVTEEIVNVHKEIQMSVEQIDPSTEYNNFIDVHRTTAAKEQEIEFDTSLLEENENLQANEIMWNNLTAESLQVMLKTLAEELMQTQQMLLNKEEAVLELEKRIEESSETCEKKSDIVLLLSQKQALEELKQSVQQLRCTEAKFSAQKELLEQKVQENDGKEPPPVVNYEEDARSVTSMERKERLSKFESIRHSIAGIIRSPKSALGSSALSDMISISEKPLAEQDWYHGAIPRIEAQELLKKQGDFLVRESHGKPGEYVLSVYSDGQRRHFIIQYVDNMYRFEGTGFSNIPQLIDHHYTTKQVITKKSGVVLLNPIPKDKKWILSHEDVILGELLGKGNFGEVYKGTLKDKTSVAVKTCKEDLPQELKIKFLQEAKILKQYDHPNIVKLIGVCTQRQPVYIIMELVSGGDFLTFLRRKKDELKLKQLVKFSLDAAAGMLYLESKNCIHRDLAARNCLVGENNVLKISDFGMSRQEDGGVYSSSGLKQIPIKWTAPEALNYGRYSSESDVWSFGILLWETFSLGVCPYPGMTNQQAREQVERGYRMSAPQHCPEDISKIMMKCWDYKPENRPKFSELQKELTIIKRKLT
Chain of PIM1 (human) (P11309 whole entry, looked up): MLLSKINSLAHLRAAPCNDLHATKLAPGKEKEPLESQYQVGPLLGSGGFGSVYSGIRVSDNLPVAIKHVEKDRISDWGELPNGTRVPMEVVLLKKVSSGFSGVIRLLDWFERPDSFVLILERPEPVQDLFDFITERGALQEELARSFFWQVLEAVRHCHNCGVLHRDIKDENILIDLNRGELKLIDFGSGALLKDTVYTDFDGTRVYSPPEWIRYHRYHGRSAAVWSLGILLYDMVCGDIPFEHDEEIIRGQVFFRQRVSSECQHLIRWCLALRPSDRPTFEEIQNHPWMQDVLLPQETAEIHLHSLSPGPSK
Chain of NEK6 (human) (Q9HC98 whole entry, looked up): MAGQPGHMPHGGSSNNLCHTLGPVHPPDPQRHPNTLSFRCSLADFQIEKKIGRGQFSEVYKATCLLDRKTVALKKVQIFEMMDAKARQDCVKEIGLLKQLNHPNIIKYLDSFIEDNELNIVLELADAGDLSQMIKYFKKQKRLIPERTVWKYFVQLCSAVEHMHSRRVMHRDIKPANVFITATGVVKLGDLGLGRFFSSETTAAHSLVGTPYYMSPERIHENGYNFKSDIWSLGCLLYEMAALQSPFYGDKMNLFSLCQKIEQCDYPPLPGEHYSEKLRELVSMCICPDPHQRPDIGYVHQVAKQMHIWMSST

`O=C1Nc2ccccc2/C1=C1\Nc2ccccc2\C1=N/O` was tested, and the residual activity (AURKC (human); compound 1.0 µM) was 61%, the residual activity (AURKC (human); compound 10.0 µM) was 49% and the residual activity (BMX (human); compound 1.0 µM) was 21%. The residual activity (BMX (human); compound 10.0 µM) was 4%, the residual activity (CAMK2D (human); compound 1.0 µM) was 10% and the residual activity (CAMK2D (human); compound 10.0 µM) was 2%. The residual activity (CDC42BPB (human); compound 1.0 µM) was 106%, the residual activity (CDC42BPB (human); compound 10.0 µM) was 103% and the residual activity (CDK2 CCNA2 (human); compound 1.0 µM) was 19%. The residual activity (CDK2 CCNA2 (human); compound 10.0 µM) was 5%, the residual activity (CHEK1 (human); compound 1.0 µM) was 65% and the residual activity (CHEK1 (human); compound 10.0 µM) was 30%. For the same compound, the residual activity (CHEK2 (human); compound 1.0 µM) was 13%, the residual activity (CHEK2 (human); compound 10.0 µM) was 2% and the residual activity (EPHA7 (human); compound 1.0 µM) was 70%. It also gave a residual activity (EPHA7 (human); compound 10.0 µM) of 15%, a residual activity (FER (human); compound 1.0 µM) of 70% and a residual activity (FER (human); compound 10.0 µM) of 53%. For the same compound, the residual activity (FGFR4 (human); compound 1.0 µM) was 100%, the residual activity (FGFR4 (human); compound 10.0 µM) was 45% and the residual activity (FRK (human); compound 1.0 µM) was 13%. For the same compound, the residual activity (FRK (human); compound 10.0 µM) was 6%, the residual activity (FYN (human); compound 1.0 µM) was 5% and the residual activity (FYN (human); compound 10.0 µM) was 0%. It also gave a residual activity (GRK6 (human); compound 1.0 µM) of 81%, a residual activity (GRK6 (human); compound 10.0 µM) of 80% and a residual activity (INSR (human); compound 1.0 µM, ATP 45 µM) of 35%. For the same compound, the residual activity (INSR (human); compound 1.0 µM, ATP 200 µM) was 17%, the residual activity (INSR (human); compound 10.0 µM, ATP 45 µM) was 19% and the residual activity (INSR (human); compound 10.0 µM, ATP 200 µM) was 10%. For the same compound, the residual activity (IRAK1 (human); compound 1.0 µM) was 60%, the residual activity (IRAK1 (human); compound 10.0 µM) was 11% and the residual activity (LIMK1 (human); compound 1.0 µM) was 61%. For the same compound, the residual activity (LIMK1 (human); compound 10.0 µM) was 21%, the residual activity (MAP2K6 (human); compound 1.0 µM) was 63% and the residual activity (MAP2K6 (human); compound 10.0 µM) was 40%. It also gave a residual activity (MAP3K9 (human); compound 1.0 µM) of 6%, a residual activity (MAP3K9 (human); compound 10.0 µM) of 1% and a residual activity (MAPK10 (human); compound 1.0 µM) of 7%. For the same compound, the residual activity (MAPK10 (human); compound 10.0 µM) was -2%, the residual activity (MAPK13 (human); compound 1.0 µM) was 90% and the residual activity (MAPK13 (human); compound 10.0 µM) was 82%. The residual activity (MARK2 (human); compound 1.0 µM) was 48%, the residual activity (MARK2 (human); compound 10.0 µM) was 14% and the residual activity (NEK6 (human); compound 1.0 µM) was 91%. It also gave a residual activity (NEK6 (human); compound 10.0 µM) of 103%, a residual activity (PAK3 (human); compound 1.0 µM) of 88% and a residual activity (PAK3 (human); compound 10.0 µM) of 57%. For the same compound, the residual activity (PAK6 (human); compound 1.0 µM) was 63%, the residual activity (PAK6 (human); compound 10.0 µM) was 37% and the residual activity (PAK7 (human); compound 1.0 µM) was 64%. It also gave a residual activity (PAK7 (human); compound 10.0 µM) of 33%, a residual activity (PIM1 (human); compound 1.0 µM) of 76% and a residual activity (PIM1 (human); compound 10.0 µM) of 47%. For the same compound, the residual activity (PIM2 (human); compound 1.0 µM) was 68%, the residual activity (PIM2 (human); compound 10.0 µM) was 38% and the residual activity (PLK2 (human); compound 1.0 µM) was 97%. The residual activity (PLK2 (human); compound 10.0 µM) was 82%, the residual activity (PRKCI (human); compound 1.0 µM) was 96% and the residual activity (PRKCI (human); compound 10.0 µM) was 105%. For the same compound, the residual activity (PRKCZ (human); compound 1.0 µM) was 101%, the residual activity (PRKCZ (human); compound 10.0 µM) was 98% and the residual activity (PTK2 (human); compound 1.0 µM) was 39%. It also gave a residual activity (PTK2 (human); compound 10.0 µM) of 2%, a residual activity (RET (human); compound 1.0 µM) of 1% and a residual activity (RET (human); compound 10.0 µM) of 0%. The residual activity (STK4 (human); compound 1.0 µM) was 8% and the residual activity (STK4 (human); compound 10.0 µM) was 2%.
